Measurements as given in ChEMBL document CHEMBL1201862, “PubChem BioAssay data set” (2004).
Activity calls are given as the source filed them.

How the values were obtained:
[1] = HEK-293T viability loss after treatment – luminescence, T-cell screen hits, cytotoxicity control for TCR NF-kB inhibitor project, dose response (AID 489026); type: functional, cell-based;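 also: cells exposed to compound about 14 hours before the viability readout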
Galanin receptor type 3 = target: T1, Galanin receptor type 3 (Homo sapiens, UniProt O60755); test: Fluorescence-based cell-based primary high throughput dose response assay to identify antagonists of the Galanin Receptor 3 (GalR3).; type: functional
T1 sequence (O60755 whole entry): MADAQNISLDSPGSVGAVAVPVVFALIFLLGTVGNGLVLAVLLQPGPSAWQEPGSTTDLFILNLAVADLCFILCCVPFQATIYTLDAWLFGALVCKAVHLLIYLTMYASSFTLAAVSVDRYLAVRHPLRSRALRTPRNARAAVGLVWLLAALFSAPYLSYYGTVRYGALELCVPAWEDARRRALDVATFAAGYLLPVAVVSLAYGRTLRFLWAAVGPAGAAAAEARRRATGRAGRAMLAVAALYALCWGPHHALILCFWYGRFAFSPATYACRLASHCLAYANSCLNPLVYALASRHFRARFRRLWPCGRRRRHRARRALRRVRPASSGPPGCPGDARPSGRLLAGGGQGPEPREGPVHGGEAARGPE

BJ [2] = test: BJ-TERT fibroblast viability loss – cell-based, RAS-independent, luminescence, dose response (AID 1933); type: functional; details: Homo sapiens
[3] = reduction of Shn3 3'UTR-driven luciferase in osteoblasts – cell-based, Clone20 osteoblasts, firefly luciferase, cherry-picked, dose response (AID 624132); type: functional;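 also: firefly luciferase luminescence from reporter carrying the Shn3 3'UTR in osteoblasts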
BJ [4] = test: cells; type: functional, cell-based; details: Homo sapiens
BJ [5] = test: BJ-TERT-LT-ST fibroblast viability loss – cell-based, RAS-independent, luminescence, dose response (AID 1935); type: functional; details: Homo sapiens;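 also: BJ fibroblasts immortalized with TERT plus LT and ST oncogenes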
[6] = non-specific 3'UTR reporter inhibition in Clone20-Shn3RL – cell-based, Renilla luciferase, cherry-picked, counter-screen for Shn3 inhibitor project, dose response (AID 624133); type: functional
INS1 = test: INS-1E survival protection against cytokine death – cell-based, luminescence, retest, dose response (AID 449756); type: functional; details: Rattus norvegicus;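 also: cell death triggered by IL-1 beta plus TNF-alpha plus IFN-gamma mixture; protective hits raise ATP signal compared with cytokine alone wells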
[7] = DRD fibroblast viability loss – cell-based, non-viral oncogenic, luminescence, dose response (AID 1934); type: functional; details: Homo sapiens
[8] = loss of viability in HepG2 cells – cell-based, CellTiter-Glo, cherry-picked, cytotoxicity control for Shn3 inhibitor project, dose response (AID 624134); type: functional
cells [9] = type: functional, cell-based; details: HEK-CNG
[10] = NIH3T3 cell viability loss – ATP luminescence, mouse fibroblasts, counter-screen, dose response (AID 2010); type: functional, cell-based;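 also: cells exposed to compound for about 90 hours before reading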
[11] = target: Photoreceptor-specific nuclear receptor (Homo sapiens, UniProt Q9Y5X4); type: functional, cell-based;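 also: CHO-S cells with Gal4-NCOR and VP16-NR2E3 two-hybrid luciferase reporter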
Sequence of Photoreceptor-specific nuclear receptor (Q9Y5X4 whole entry, the tested form may be a part): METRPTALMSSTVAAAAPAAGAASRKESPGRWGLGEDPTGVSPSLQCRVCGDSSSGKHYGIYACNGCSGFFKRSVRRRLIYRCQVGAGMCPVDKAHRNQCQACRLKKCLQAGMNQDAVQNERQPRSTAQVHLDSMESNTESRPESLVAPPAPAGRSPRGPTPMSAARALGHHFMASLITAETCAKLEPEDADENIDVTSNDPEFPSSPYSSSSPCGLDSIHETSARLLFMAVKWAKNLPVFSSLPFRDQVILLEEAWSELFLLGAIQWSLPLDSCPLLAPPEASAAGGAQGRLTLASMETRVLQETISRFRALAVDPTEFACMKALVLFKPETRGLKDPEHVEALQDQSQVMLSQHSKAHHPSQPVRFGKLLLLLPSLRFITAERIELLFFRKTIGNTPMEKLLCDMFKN

[12] = Trypanosoma cruzi growth suppression in host cells – NIH3T3 host cells, beta-gal luminescence, confirmation (AID 2044); type: functional, cell-based;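 also: intracellular parasites grown in NIH/3T3 mouse fibroblasts as host cells; luminescent beta-galactosidase reporter signal from transgenic T. cruzi replicating inside host cells; inhibitors lower the luminescence signal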
[13] = viability of uninfected HEp-2 cells – cell-based, HTS, cytotoxicity control for RSV inhibitor project, dose response (AID 2410); type: functional; details: human respiratory syncytial virus
cells [14] = test: cells
[15] = target: T2, Low molecular weight phosphotyrosine protein phosphatase (Homo sapiens, UniProt P24666); type: functional; details: read-out: IC50_Mean
T2 sequence (P24666 whole entry): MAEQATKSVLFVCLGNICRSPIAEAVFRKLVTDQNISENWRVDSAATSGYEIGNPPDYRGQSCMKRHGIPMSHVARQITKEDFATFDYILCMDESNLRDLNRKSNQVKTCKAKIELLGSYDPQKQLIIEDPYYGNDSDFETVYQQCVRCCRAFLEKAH

[16] = target: T2, Low molecular weight phosphotyrosine protein phosphatase; type: functional; details: read-out: IC50_Mean; remark: listed apart in the source
[17] = target: T3, High affinity choline transporter 1 (Homo sapiens, UniProt Q9GZV3); test: human choline transporter blockers, potency – cell-based, 5-point CRC, membrane potential dye, dose response (AID 504840); type: functional
T3 sequence (Q9GZV3 whole entry): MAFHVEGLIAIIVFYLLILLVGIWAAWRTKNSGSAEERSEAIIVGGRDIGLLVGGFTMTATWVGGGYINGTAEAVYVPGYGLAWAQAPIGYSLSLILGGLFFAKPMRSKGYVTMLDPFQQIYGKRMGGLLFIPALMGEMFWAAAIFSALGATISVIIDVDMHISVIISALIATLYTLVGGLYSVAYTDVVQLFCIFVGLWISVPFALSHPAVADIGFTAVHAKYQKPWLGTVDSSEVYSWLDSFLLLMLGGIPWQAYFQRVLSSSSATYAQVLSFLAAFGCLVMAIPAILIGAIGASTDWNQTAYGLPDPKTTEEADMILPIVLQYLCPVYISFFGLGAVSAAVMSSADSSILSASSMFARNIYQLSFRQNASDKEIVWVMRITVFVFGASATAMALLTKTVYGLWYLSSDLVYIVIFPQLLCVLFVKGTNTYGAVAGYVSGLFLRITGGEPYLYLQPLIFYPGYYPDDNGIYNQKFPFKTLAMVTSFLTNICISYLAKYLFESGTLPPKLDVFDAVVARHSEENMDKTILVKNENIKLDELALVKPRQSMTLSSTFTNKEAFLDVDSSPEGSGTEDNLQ

[18] = target: T4, Corticotropin-releasing factor receptor 2/Corticotropin-releasing factor-binding protein (Homo sapiens, UniProt P24387+Q13324); test: activators of CRF receptor 2 with binding protein – uHTS hits, confirmation (AID 602473); type: functional; details: read-out: EC50_Mean
T4 sequence (Q13324 whole entry): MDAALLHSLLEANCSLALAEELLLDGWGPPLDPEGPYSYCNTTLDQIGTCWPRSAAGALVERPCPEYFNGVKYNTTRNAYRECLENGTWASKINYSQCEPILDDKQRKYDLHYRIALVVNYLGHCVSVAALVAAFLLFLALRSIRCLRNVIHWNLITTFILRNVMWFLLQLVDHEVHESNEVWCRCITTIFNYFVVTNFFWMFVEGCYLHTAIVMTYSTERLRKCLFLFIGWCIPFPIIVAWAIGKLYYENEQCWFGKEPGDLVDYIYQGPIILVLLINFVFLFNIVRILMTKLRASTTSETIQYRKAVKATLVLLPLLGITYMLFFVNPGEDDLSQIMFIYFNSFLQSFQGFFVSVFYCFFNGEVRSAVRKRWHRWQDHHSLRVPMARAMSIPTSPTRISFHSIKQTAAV
T4 sequence (P24387 whole entry): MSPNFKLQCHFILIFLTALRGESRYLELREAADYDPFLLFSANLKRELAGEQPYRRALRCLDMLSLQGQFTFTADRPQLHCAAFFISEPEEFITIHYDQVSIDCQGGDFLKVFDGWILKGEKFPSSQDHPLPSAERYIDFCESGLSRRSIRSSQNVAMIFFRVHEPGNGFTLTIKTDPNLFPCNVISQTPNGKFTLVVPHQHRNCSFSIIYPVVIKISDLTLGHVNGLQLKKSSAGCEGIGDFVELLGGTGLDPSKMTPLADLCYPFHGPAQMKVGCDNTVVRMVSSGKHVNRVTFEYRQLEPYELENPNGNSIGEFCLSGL

[19] = blockers of CRF-binding protein–CRF-R2 complex – cell-based, uHTS hits, 384-well, dose response (AID 651639); type: functional, Homo sapiens; details: read-out: IC50_Mean
[20] = target: T4, Corticotropin-releasing factor receptor 2/Corticotropin-releasing factor-binding protein; test: Dose Response confirmation of uHTS hits for small molecule antagonists of the CRF-binding protein and CRF-R2 receptor complex.; type: functional; details: read-out: IC50_Mean
Aminopeptidase N = target: T5, Aminopeptidase N (Plasmodium falciparum FcB1/Columbia, UniProt O96935); test: malaria alanyl aminopeptidase activity blockers – biochemical, fluorogenic H-Leu-NHMec substrate, 1536-well (AID 1445); design: species or system Plasmodium falciparum 3D7, 3D7
T5 sequence (O96935 whole entry): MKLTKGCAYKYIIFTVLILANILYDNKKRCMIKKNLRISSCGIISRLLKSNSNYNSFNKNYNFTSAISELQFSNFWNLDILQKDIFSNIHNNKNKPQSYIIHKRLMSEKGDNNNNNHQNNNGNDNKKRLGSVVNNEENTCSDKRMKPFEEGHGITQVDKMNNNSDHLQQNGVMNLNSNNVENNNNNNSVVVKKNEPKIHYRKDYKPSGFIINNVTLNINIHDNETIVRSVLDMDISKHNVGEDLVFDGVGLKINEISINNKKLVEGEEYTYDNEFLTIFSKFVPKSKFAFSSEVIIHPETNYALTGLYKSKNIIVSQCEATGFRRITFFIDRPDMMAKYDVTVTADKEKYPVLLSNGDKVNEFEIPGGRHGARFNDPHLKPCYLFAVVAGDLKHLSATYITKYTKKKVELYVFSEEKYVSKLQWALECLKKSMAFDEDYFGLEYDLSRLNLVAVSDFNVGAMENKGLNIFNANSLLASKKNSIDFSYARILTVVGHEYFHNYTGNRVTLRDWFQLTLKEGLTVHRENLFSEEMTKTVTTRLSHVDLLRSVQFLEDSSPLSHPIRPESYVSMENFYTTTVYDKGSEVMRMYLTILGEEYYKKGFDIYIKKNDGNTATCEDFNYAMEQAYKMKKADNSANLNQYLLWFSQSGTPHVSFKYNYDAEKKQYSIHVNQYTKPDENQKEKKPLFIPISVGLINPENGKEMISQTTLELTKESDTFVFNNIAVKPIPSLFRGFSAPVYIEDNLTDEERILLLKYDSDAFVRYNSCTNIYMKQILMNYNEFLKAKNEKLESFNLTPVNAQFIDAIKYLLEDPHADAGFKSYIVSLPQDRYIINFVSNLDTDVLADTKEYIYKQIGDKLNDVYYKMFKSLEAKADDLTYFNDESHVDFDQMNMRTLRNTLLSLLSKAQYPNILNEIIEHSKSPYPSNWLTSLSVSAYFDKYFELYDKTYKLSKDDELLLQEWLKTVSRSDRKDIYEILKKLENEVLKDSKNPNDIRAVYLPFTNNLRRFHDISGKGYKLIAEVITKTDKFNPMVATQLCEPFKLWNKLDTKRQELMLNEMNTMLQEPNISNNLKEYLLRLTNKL

[21] = target: T6, COUP transcription factor 2 (Homo sapiens, UniProt P24468); test: Luminescence-based cell-based high throughput dose response assay to identify inhibitors of COUP-TFII (NR2F2).; type: functional;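 also: HEK293 cells transiently cotransfected with COUP-TFII expression vector and reporter; luciferase reporter luminescence driven by COUP-TFII from the pX2-168 reporter plasmid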
T6 sequence (P24468 whole entry): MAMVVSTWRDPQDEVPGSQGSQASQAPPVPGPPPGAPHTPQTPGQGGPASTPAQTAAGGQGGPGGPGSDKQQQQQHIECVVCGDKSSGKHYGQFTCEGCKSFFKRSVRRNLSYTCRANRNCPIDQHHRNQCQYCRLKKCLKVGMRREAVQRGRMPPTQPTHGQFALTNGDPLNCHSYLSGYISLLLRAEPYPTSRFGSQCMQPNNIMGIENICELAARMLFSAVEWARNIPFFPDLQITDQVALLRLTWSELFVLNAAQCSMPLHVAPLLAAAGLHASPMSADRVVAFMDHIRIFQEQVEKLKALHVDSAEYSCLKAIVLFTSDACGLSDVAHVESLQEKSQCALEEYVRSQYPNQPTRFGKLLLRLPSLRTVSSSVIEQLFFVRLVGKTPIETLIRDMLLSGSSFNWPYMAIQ

[22] = target: Nuclear receptor subfamily 5 group A member 2 (Homo sapiens, UniProt O00482); type: functional, cell-based;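 also: HEK293T cells transfected with LRH-1 and a StAR promoter luciferase reporter; potency for inhibitors that lower LRH-1 driven reporter light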
Sequence of Nuclear receptor subfamily 5 group A member 2 (O00482 whole entry): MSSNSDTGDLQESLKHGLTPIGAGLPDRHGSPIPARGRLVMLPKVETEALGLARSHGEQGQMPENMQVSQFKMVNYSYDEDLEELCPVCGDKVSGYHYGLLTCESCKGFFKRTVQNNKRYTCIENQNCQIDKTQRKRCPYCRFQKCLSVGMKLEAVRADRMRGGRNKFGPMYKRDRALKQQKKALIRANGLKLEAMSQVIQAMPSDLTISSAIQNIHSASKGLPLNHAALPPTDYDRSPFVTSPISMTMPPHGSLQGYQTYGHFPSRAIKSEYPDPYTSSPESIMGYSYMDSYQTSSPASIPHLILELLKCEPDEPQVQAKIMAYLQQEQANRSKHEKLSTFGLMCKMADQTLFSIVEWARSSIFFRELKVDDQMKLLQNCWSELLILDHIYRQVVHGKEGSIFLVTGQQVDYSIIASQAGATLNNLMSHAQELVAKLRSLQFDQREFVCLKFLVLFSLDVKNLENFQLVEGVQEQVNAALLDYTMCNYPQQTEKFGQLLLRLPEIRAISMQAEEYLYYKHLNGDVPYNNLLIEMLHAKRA

[23] = nonselective StAR promoter luciferase inhibitors – cell-based, luminescence, luciferase reporter, counter-screen for LRH-1 inverse agonist project, dose response (AID 651969); type: functional
Steroidogenic factor 1 = Steroidogenic factor 1 (Homo sapiens, UniProt Q13285); test: Counterscreen for inverse agonists of the liver receptor homolog-1 (LRH-1; NR5A2): Luminescence-based cell-based high throughput dose response assay to identify inverse agonists of the Steroidogenic Factor 1 Nuclear Receptor (SF1; NR5A1).; type: functional
Sequence of Steroidogenic factor 1 (Q13285 whole entry): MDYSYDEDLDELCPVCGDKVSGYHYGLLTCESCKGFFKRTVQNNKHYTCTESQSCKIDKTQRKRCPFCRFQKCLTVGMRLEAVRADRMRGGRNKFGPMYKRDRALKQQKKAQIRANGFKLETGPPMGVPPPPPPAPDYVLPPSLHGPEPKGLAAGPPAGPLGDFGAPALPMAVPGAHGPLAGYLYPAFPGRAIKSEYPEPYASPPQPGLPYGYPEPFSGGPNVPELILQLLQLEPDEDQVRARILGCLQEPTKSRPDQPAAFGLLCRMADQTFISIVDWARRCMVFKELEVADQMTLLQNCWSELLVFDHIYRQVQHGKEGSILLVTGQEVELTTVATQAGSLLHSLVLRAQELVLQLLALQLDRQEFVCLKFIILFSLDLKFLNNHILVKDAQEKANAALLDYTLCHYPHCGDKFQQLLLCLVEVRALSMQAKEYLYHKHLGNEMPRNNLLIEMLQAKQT

cells [24] = type: functional, cell-based
cells [25] = type: functional, cell-based; remark: listed apart in the source

O=S(=O)(c1ccc2c(c1)OCCO2)N1CCN(c2ncnc3sccc23)CC1
IC50 [1]: > 80 µM (inactive)
IC50 (Galanin receptor type 3): 2.06 µM (active)
EC50 (BJ [2]): > 150 µM (not active)
AC50 [3]: 1.45 µM (active)
EC50 (BJ [4]): > 150 µM (not active)
EC50 (BJ [5]): > 150 µM (not active)
AC50 [6]: 29.6 µM (active)
AC50 (INS1): 3.37 µM (active)
EC50 [7]: > 150 µM (not active)
AC50 [8]: 3.21 µM (active)
EC50 (cells [9]): > 29.9 µM (inactive)

Cc1nn(Cc2cccc(F)c2)c(C)c1NC(=O)c1ccc(COc2ccccc2Cl)cc1
EC50 [10]: 40.4 µM (active)
IC50 [11]: 2.85 µM (active)
EC50 [12]: 1.26 µM (active)

O=C(O)c1cccc(NC(=O)c2cn(-c3ccccc3)nc2-c2cc3ccccc3o2)c1
CC50 [13]: 33 µM (active)
IC50 (cells [14]): 20.9 µM (active)
IC50 [15]: 18 µM (active)
IC50 [16]: 43 µM (inactive)

O=C(Nc1cc(S(=O)(=O)N2CCCCC2)ccc1O)c1ccccc1NS(=O)(=O)c1ccc(F)c(F)c1
IC50 [17]: 12.6 µM (active)
EC50 [18]: 7.48 µM (active)
IC50 [19]: > 20 µM (inactive)
IC50 [20]: 5.71 µM (active)
IC50 (Aminopeptidase N): 69.4 µM (active)

O=C(Nc1cccc(NC(=O)c2c(F)cccc2F)n1)c1c(F)cccc1F
IC50 [11]: 2.98 µM (active)

COC(=O)C1CCCCN1C(=O)c1cc(COc2cccc3cnccc23)on1 (centres undefined)
IC50 (Galanin receptor type 3): 1.48 µM (active)
IC50 [21]: 7.34 µM (active)
AC50 (INS1): 3.68 µM (active)
EC50 (cells [9]): > 29.9 µM (inactive)

O=C(COC(=O)c1ccc(Br)cc1)Nc1ccccc1Br
IC50 [22]: 35.9 µM (inactive)
IC50 [23]: 35.9 µM (inactive)
IC50 (Steroidogenic factor 1): 35.9 µM (inactive)

COc1cc2c(cc1OC)C1C(=O)c3ccc4c(c3OC1CO2)CC(C(C)C)O4 (centres undefined)
IC50 (Galanin receptor type 3): 0.0386 µM (active)
AC50 [3]: < 0.26 µM (active)
IC50 [21]: 0.519 µM (active)
AC50 [6]: 5.08 µM (active)
AC50 [8]: 0.614 µM (active)
EC50 (cells [9]): > 29.9 µM (inactive)

O=C(N[C@H](C(=O)N1CCC[C@H]1C(=O)NCCc1ccccc1Cl)C1CCCCC1)c1cccs1
IC50 (cells [24]): > 29.9 µM (inactive)
EC50 (cells [25]): > 29.9 µM (inactive)
